Assay results as given in US11130780B2, “Inhibitors of growth factor activation enzymes” (Washington University, priority 2015, dated 2021).
Residues, ends and D or L forms follow the SMILES beside them. *: point of attachment. ACC = NC(=O)Cc1cc(=O)oc2cc(N*)ccc12

Experiments:
Type in all cases: biochemical
[1] = biological target: T1, hepsin (Homo sapiens, UniProt P05981); assay: P1 substrate specificity using Ac-Ala-Arg-Leu-P1-ACC individual substrate library, hepsin; conditions: substrate 5 μM; best amino acid set to 100%
T1 construct: purchased R&D Systems 4776-SE-010
T1 sequence (P05981 163-417 limits assumed): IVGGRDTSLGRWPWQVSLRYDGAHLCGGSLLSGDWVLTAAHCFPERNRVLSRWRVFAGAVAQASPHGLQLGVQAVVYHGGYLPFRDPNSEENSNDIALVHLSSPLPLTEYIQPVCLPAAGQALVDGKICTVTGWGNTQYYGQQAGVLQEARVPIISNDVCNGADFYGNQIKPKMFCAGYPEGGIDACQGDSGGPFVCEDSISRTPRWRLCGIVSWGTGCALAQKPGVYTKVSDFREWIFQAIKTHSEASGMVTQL
T1 sequence (P05981 45-162 partner limits assumed): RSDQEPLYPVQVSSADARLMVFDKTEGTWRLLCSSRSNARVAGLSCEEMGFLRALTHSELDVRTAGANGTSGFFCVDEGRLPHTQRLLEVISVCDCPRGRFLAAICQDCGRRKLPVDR
Method: (§1) Recombinant human hepsin (10 μg in 20 uL, 4776-SE-010, R&D Systems) was added to the 100 μL of activation buffer (0.1 M Tris, 0.15 M NaCl, 0.01 M CaCl2, 0.05% TRITON-X, pH=8.0) and incubated at 37° C. for 24 hours (hepsin concentration in activation buffer 2 μM). Once activated hepsin was diluted in assay buffer (0.05 M Tris, pH=9.0) to the final concentration of 4 nM and incubated at 37° C. for 15 minutes before added to a substrate.
(§2) The protocol for both enzymes activation and incubation are as the same as in HyCoSuL screening. The P1 individual substrate library was used at the final concentration of 5 μM. The total time of the assay was 30 min, however only linear portions of the progress curve (5-15 minutes) were used for velocity (RFU/s) calculations. Each screening for hepsin either HGFA was repeated 3-times and the average value for each measurement was used to create the substrate specificity matrix.

[2] = biological target: T1, hepsin; assay: P4-P2 substrate specificity using HyCoSuL, hepsin; parameters: concentration or dose not given beside the values; conditions: HyCoSuL substrate library; for P2 Position % Activity Hepsin: amino acid fixed at P2 position; for P3 Position % Activity Hepsin: amino acid fixed at P3 position; for P4 Position % Activity Hepsin: amino acid fixed at P4 position
Method: (§3) Each of the P4, P3, and P2 sublibraries were screened at the 100 μM concentration with hepsin either HGFA in a 100 μL final volume per well (99 μL of protease in buffer+1 μL of 10 mM substrates mixture). The total time of the assay was 30 minutes, however only linear portions of the progress curve (5-15 minutes) were used for velocity (RFU/s) calculations. Each sublibrary screening was repeated at least 3-times and the average value calculated from each measurement was used to create the substrate specificity matrix—the best recognized amino acid in each position was set to 100%, and other amino acids were adjusted accordingly.
as §1

[3] = biological target: T2, HGFA (Homo sapiens, UniProt Q04756); assay: P1 substrate specificity using Ac-Ala-Arg-Leu-P1-ACC individual substrate library, HGFA; conditions: substrate 5 μM; best amino acid set to 100%
T2 sequence (Q04756 408-655 limits assumed): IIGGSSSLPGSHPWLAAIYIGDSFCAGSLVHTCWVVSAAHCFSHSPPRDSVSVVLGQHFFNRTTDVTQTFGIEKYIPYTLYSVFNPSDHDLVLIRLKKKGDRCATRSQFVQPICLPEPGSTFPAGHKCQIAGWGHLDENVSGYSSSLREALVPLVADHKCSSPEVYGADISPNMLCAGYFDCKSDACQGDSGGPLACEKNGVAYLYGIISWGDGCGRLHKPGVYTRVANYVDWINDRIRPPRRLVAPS
T2 sequence (Q04756 373-407 partner limits assumed): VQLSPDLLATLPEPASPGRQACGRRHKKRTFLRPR
Method: (§4) HFGA enzyme was diluted in the assay buffer (0.15 M NaCl, 0.025 M Tris, 0.005 M CaCl2, pH=8.0) to the final concentration of 10-20 nM (depending of sublibrary) and incubated at 25° C. for 30 minutes before added to a substrate.
as §2

[4] = biological target: T2, HGFA; assay: P4-P2 substrate specificity using HyCoSuL, HGFA; parameters: P3 Position % Activity HGFA / P2 Position % Activity HGFA: concentration or dose not given beside the values; P4 Position % Activity HGFA: tested at 100 µM; conditions: HyCoSuL substrate library; for P2 Position % Activity HGFA: amino acid fixed at P2 position; for P3 Position % Activity HGFA: amino acid fixed at P3 position; for P4 Position % Activity HGFA: amino acid fixed at P4 position
Method: as §3, §4

Compound | % activity, P1 position, Hepsin [1] [%] | P2 Position % Activity Hepsin [2] [%] | P3 Position % Activity Hepsin [2] [%] | P4 Position % Activity Hepsin [2] [%] | % activity, P1 position, HGFA [3] [%] | P2 Position % Activity HGFA [4] [%] | P3 Position % Activity HGFA [4] [%] | P4 Position % Activity HGFA [4] [%]
CC(=O)N[C@@H](C)C(=O)N[C@@H](CCCNC(=N)N)C(=O)N[C@@H](CC(C)C)C(=O)N[C@@H](CCCNC(=N)N)C(=O)Nc1ccc2c(CC(N)=O)cc(=O)oc2c1 [Ac-Ala-Arg-Leu-Arg-ACC] (Ac-ARLR-{ACC}) | 100.00 | 57.23 | 70.75 | 80.32 | 100.00 | 2.08 | 43.98 | 23.62
D-Ala | 0.00 | 0.00 | 48.09 | 18.44 | 0.00 | 0.00 | 9.84 | 7.11
D-Asn | 0.00 | 0.00 | 38.75 | 18.48 | 0.00 | 0.00 | 15.16 | 7.38
D-Asp | 0.05 | 0.00 | 17.18 | 1.98 | 0.00 | 0.00 | 5.37 | 2.25
D-Gln | 0.00 | 0.00 | 97.80 | 20.13 | 0.00 | 0.00 | 13.84 | 8.03
D-Glu | 0.00 | 0.00 | 34.55 | 2.98 | 0.00 | 0.00 | 3.61 | 2.62
D-Leu | 0.00 | 0.00 | 20.14 | 24.76 | 0.00 | 0.00 | 7.08 | 10.56
D-Lys | 0.23 | 0.00 | 64.56 | 49.84 | 0.00 | 0.00 | 21.11 | 17.66
D-Phe | – | 0.00 | 24.92 | 13.15 | 0.00 | 0.00 | 15.22 | 8.13
D-Pro | 1.08 | 0.00 | 38.88 | 20.45 | 0.00 | 0.00 | 4.96 | 10.30
D-Ser | 0.02 | 11.55 | 54.84 | 21.84 | 0.00 | 0.00 | 10.86 | 7.94
D-Thr | 0.24 | 0.00 | 36.69 | 25.74 | 0.00 | 0.00 | 6.45 | 8.61
D-Trp | 0.50 | 0.00 | 24.90 | 1.48 | 0.00 | 0.00 | 87.59 | 7.65
D-Tyr | 0.23 | 0.00 | 29.94 | 12.66 | 0.00 | 0.00 | 17.32 | 10.09
L-Cit | 0.42 | 32.27 | 29.53 | 36.68 | 0.00 | 6.32 | 13.41 | 6.44
L-Dap | 0.03 | 10.01 | 48.71 | 35.65 | 0.00 | 1.49 | 24.27 | 13.31
L-Hyp | 0.00 | 38.67 | 4.70 | 37.81 | 0.00 | 3.95 | 2.18 | 10.66
L-Met(O) | 0.00 | 11.40 | 68.16 | 22.86 | 0.00 | 1.68 | 16.63 | 6.64
L-Nle | 0.07 | 62.04 | 24.09 | 40.93 | 0.00 | 45.52 | 19.15 | 11.76
L-Nva | 0.14 | 58.40 | 25.85 | 41.99 | 0.00 | 39.80 | 17.60 | 11.78
L-Orn | 0.00 | 78.48 | 79.70 | 84.52 | 0.00 | 0.00 | 54.04 | 20.23
L-hArg | 0.24 | 57.96 | 47.00 | 56.24 | 0.00 | 5.83 | 100.00 | 22.07
